pKd: −log10 of the molar value. “And” between values parts separate entries of the source, which are not always exact repeats. Equal values may be shown once. “Also recorded” adds a separate entry of the source. Positions of bridges follow the written chain, without caps; N, C: chain ends. Non-standard residues stand in square brackets, D forms with d. Residues, ends and D or L forms follow the SMILES beside them. S5 = C=CCCC[C@](C)(N)C(=O)O
How the values were obtained:
[1] = test system: MUC5AC secretion from primary human airway epithelial (HAE) cells; assay: Mucin-secretion assay in HAE cells; details: 10 μM peptide 30 min; for ratio of experimental to baseline MUC5AC secretion, mean: mean of n = 4–5 ALI cultures
[2] = target: airway SNAREs, Syt2, Munc13-2*, Munc18-2, NSF and αSNAP (Rattus norvegicus, UniProt P29101); assay: Single-vesicle content mixing assay, complete reconstitution; type: biochemical
Chain of airway SNAREs, Syt2, Munc13-2*, Munc18-2, NSF and αSNAP (P29101 whole entry): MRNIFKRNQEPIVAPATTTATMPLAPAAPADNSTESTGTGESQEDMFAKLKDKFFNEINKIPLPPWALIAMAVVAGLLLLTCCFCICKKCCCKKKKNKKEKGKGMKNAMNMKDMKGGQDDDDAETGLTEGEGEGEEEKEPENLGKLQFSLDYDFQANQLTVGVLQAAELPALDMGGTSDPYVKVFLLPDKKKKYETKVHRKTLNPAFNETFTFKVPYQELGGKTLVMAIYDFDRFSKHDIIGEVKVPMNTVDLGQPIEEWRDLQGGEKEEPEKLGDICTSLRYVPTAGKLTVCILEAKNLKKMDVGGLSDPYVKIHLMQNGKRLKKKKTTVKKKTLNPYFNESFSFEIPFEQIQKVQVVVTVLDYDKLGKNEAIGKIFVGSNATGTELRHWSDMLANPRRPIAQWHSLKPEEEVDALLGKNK
Method: For the complete reconstitution (Fig. 3), to form airway SM vesicles with reconstituted Stx3–Munc18-2 complex, we added the ‘disassembly factors’ (1 μM Munc18-2, 0.5 μM NSF, 5 μM αSNAP, 3 mM ATP and 3 mM Mg^2+) to tethered airway PM vesicles (Fig. 3b), according to previous work with neuronal proteins. This procedure results in tethered SM vesicles.

airway SNAREs alone = assay: Single-vesicle content mixing assay, airway SNAREs alone (VAMP8 vesicles); details: for Ca2+ independent fusion per sec: ED Fig 7k
[3] = test system: reconstituted neuronal SNAREs (Stx1A, SNAP-25A, VAMP2) and Syt1; assay: Single-vesicle content mixing assay, neuronal SNAREs and Syt1; type: biochemical
neuronal SNAREs alone = assay: Single-vesicle content mixing assay, neuronal SNAREs alone (VAMP2 vesicles); type: biochemical
[4] = target: reconstituted airway epithelial SNAREs (Stx3, SNAP-23, VAMP8) and Syt2 (Rattus norvegicus, UniProt P29101); assay: Single-vesicle content mixing assay, simple reconstitution (SR); details: for Ca2+ independent fusion per sec: ED Fig 7d
Chain of reconstituted airway epithelial SNAREs (Stx3, SNAP-23, VAMP8) and Syt2 (P29101 whole entry, the tested form may be a part): as the sequence (P29101 whole entry) above

[5] = CD spectroscopy, α-helical content; type: physicochemical; details: 100 μM peptide in PBS pH 7.4, [φ]222obs relative to model helical decapeptide
Method: CD spectra were measured using the AVIV stop-flow CD spectropolarimeter at 190–250 nm using a cell with a 1 mm path length. […] For the correction of the baseline error, the signal from a blank run with PBS buffer was subtracted from all the experimental spectra. The α-helical content of each peptide was calculated by dividing the mean residue ellipticity [φ]222obs by the reported [φ]222obs for a model helical decapeptide.

[6] = target: Syt1 C2B(QM) quintuple mutant (Rattus norvegicus, UniProt P21707, E295A/R281A/R398A/R399A/Y338W); assay: Bulk fluorescence anisotropy binding; details: Cy3-labelled SP9, fluorescence anisotropy
Chain of Syt1 C2B(QM) quintuple mutant (P21707 271-421 R281A/E295A/Y338W/R398A/R399A): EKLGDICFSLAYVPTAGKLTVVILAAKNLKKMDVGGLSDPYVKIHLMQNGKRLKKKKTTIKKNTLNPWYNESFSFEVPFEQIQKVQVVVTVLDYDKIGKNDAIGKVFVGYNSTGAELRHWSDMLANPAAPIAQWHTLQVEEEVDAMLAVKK

airway lumenal mucus = assay: Airway lumenal mucus occlusion in peptide-treated mice; details: IL-13 metaplasia, 200 μM peptide by microsprayer 30 min before methacholine; sections at 500 µm intervals; each value one mouse
[7] = target: SP9–Cy3 (hydrocarbon-stapled SNAP-25A fragment SP9 labelled with Cy3 at the C terminus); assay: fluorescence polarisation; bulk fluorescence anisotropy; 10 nM Cy3-labelled peptide mixed with varying concentrations of unlabelled C2B domain; TBS (20 mM Tris, pH 7.5, 150 mM NaCl, 0.5 mM TCEP), 27.2 °C; Hill equation fit with the Hill coefficient constrained to 1
[8] = 10 μM peptide, each value one repeat experiment

Chain of Syt2 C2B (C2B domain of synaptotagmin-2, amino acid range 272–422) (P29101 272-422): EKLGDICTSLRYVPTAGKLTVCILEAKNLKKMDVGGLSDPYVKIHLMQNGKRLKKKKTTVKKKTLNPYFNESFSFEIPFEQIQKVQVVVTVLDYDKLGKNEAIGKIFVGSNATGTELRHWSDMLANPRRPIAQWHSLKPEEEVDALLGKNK
Chain of Syt1 C2B (C2B domain of synaptotagmin-1, amino acid range 271–421) (P21707 271-421): as the sequence (P21707 271-421 R281A/E295A/Y338W/R398A/R399A) above, with A11R, A25E, W68Y, A128R, A129R counted along it

**Q.** With CC[C@H](C)[C@H](NC(=O)[C@]1(C)CCCC=CCCC[C@](C)(NC(=O)[C@H](CCC(=O)O)NC(=O)[C@H](CCC(=O)O)NC(C)=O)C(=O)N[C@@H](CCCCN)C(=O)N[C@@H](CC(=O)O)C(=O)N[C@@H](C)C(=O)N1)C(=O)N[C@@H](CCCNC(=N)N)C(=O)N[C@@]1(C)CCCC=CCCC[C@@](C)(C(=O)N[C@@H](CC(=O)O)C(=O)N[C@@H](CCC(=O)O)C(=O)N[C@@H](CCC(N)=O)C(=O)N[C@@H](CS)C(N)=O)NC(=O)[C@H](CCSC)NC(=O)[C@H](C(C)C)NC(=O)[C@H](CC(C)C)NC1=O [SP9] (Ac-EE[S5]KDA[S5]IR[S5]LVM[S5]DEQC-NH2; staple 3-7, 10-14) as the molecule, how does the “ratio of experimental to baseline MUC5AC secretion, mean” value ([1]; IL13+ATP (100 µM ATP)) read?
**A.** Its value is 3.4860.

**Q.** What about the “ratio of experimental to baseline MUC5AC secretion, mean” value ([1]; IL13, no ATP) of the same molecule?
**A.** Its value is 0.7820.

**Q.** And the “ratio of baseline to reference wash MUC5AC secretion, mean” value ([1]; IL-13 cultures, mean of n = 8–10 ALI cultures)?
**A.** The value was 0.7120.

**Q.** And the “effect on Ca2+-independent fusion probability” value ([2]; 10 μM SP9)?
**A.** The value was “only moderately reduced; also recorded: relatively modest”.

**Q.** And the “effect on Ca2+-triggered fusion amplitude, cumulative fusion probability and synchronization” value ([2]; 10 μM SP9, 50 μM and 500 μM Ca2+)?
**A.** Its value is “strongly inhibited”.

**Q.** What about the “Ca2+ independent fusion per sec (average probability)” value ([2]; 10 μM SP9, each value one repeat experiment) of the same molecule?
**A.** The value was 0.0004902 and 0.0004307 and 0.0004714 and 0.0004646 and 0.0003557 and 0.0002469.

**Q.** And the Vesicle association ([2]; 10 μM SP9 added with SG vesicles, each value one repeat experiment)?
**A.** The Vesicle association was 88 and 78 and 74 and 91.

**Q.** And the “decrease in the Ca2+-triggered fusion amplitude” value ([2]; 10 μM SP9 vs no peptide)?
**A.** Its value is “eight to tenfold decrease”.

**Q.** What about the “effect on vesicle association” value ([2]; 10 μM SP9 vs no peptide) of the same molecule?
**A.** Its value is “no effect”.

**Q.** And the “triggered fusion accumulative probability (within 1 min)” value ([2]; 50uM Ca2+, 10 μM SP9, each value one repeat experiment)?
**A.** Its value is 0.0662 and 0.06402 and 0.09074.

**Q.** And the “triggered fusion accumulative probability (within 1 min)” value ([2]; 500uM Ca2+, 10 μM SP9, each value one repeat experiment)?
**A.** The value was 0.08824 and 0.05943 and 0.07879.

**Q.** What about the “Ca2+ independent fusion per sec” value (airway SNAREs alone; repeat 1) of the same molecule?
**A.** The value was 0.0003451.

**Q.** What about the “Ca2+ independent fusion per sec” value (airway SNAREs alone; repeat 2) of the same molecule?
**A.** Its value is 0.000303.

**Q.** And the “Ca2+ independent fusion per sec” value (airway SNAREs alone; repeat 3)?
**A.** The value was 0.0004574.

**Q.** What about the “Ca2+ independent fusion per sec” value (airway SNAREs alone; repeat 4) of the same molecule?
**A.** Its value is 0.0004141.

**Q.** What about the “effect on vesicle fusion without Syt2 (VAMP8 vesicles)” value (airway SNAREs alone; SP9 vs no peptide) of the same molecule?
**A.** Its value is “no effect; also recorded: inhibitory effect of SP9 was eliminated”.

**Q.** What about the Vesicle association ([3]; 10 μM peptide added with SV vesicles, each value one repeat experiment) of the same molecule?
**A.** The Vesicle association was 248 and 327 and 271.

**Q.** What about the “effect on Ca2+-triggered and Ca2+-independent fusion” value ([3]; SP9 vs no peptide) of the same molecule?
**A.** The value was “reduced both Ca^2+-triggered fusion and Ca^2+-independent fusion”.

**Q.** What about the “effect on vesicle association” value ([3]; SP9 vs no peptide) of the same molecule?
**A.** The value was “no effect”.

**Q.** What about the “Ca2+ independent fusion per sec (average probability)” value (neuronal SNAREs alone; [8]) of the same molecule?
**A.** The value was 0.0007718 and 0.0006567 and 0.001053 and 0.0009453.

**Q.** What about the Vesicle association (neuronal SNAREs alone; [8]) of the same molecule?
**A.** The Vesicle association was 135 and 160 and 137.

**Q.** And the “effect on vesicle fusion without Syt1 (VAMP2 vesicles)” value (neuronal SNAREs alone; SP9 vs no peptide)?
**A.** The value was “no effect; also recorded: little effect”.

**Q.** And the “Ca2+ independent fusion per sec (average probability)” value ([4]; 10 μM peptide added with SG vesicles, each value one repeat experiment)?
**A.** Its value is 0.0006901 and 0.0004797 and 0.000382 and 0.0006421.

**Q.** What about the “effect on Ca2+-independent fusion probability and Ca2+-triggered cumulative fusion probability” value ([4]; 10 µM peptide vs no peptide) of the same molecule?
**A.** The value was “reduced both Ca^2+-triggered and, to a lesser degree, Ca^2+-independent fusion”.

**Q.** What about the “Ca2+ independent fusion per sec” value ([4]; repeat 1) of the same molecule?
**A.** The value was 0.0006901.

**Q.** And the “Ca2+ independent fusion per sec” value ([4]; repeat 2)?
**A.** Its value is 0.0004797.

**Q.** And the “Ca2+ independent fusion per sec” value ([4]; repeat 3)?
**A.** Its value is 0.000382.

**Q.** What about the “Ca2+ independent fusion per sec” value ([4]; repeat 4) of the same molecule?
**A.** Its value is 0.0006421.

**Q.** What about the “effect on vesicle association” value ([4]; SP9 vs no peptide) of the same molecule?
**A.** Its value is “no effect”.

**Q.** What about the helicity in solution [5] of the same molecule?
**A.** Its helicity in solution is “substantial helical content”.

**Q.** And the “binding to quintuple mutant Syt1 C2B(QM)” value [6]?
**A.** The value was “does not bind”.

**Q.** Which “sum of lumenal mucus cross-sectional area, caudal lobe of the right lung” value (airway lumenal mucus) does the source give for Ac-EESKDAGIRTLVMLDEQ-NH2 [P9] here?
**A.** The value was 0.382 and 0.464 and 0.617 and 0.201 and 0.286 and 0.712 and 0.372.

**Q.** With “Syt1 C2B (C2B domain of synaptotagmin-1, amino acid range 271–421) (from UniProt P21707 271-421) (domain or fragment)” as the molecule, how does the pKd [7] read?
**A.** The pKd was 4.62.

**Q.** With “Syt2 C2B (C2B domain of synaptotagmin-2, amino acid range 272–422) (from UniProt P29101 272-422) (domain or fragment)” as the molecule, how does the pKd [7] read?
**A.** The pKd was 4.46.
